Patent publication US20240238424A1, “HETEROBIFUNCTIONAL COMPOUNDS AND METHODS OF TREATING DISEASE” (Halda Therapeutics OpCo, Inc., priority 2021, published 2024)

Legend:
GSPT1 = biological target: T1, GSPT1 (Homo sapiens, UniProt P15170+Q96SW2); experiment: GSPT1 HiBit degradation assay; format: cell-based; details: HEK293 LgBiT cells expressing GSPT1_HiBiT, luminescence after 6 hours
T1 construct: host or cells: HEK293 LgBiT cell line
Summary of the method: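 HEK293 cells stably expressing LgBiT and GSPT1-HiBiT, seeded 18-24 h before dosing, were treated with titrated compound plus endurazine (0.5× final) at 37 °C. Luminescence loss after 6 h reflects GSPT1 degradation; DC50 is the concentration giving 50% degradation.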

HeLa KRas G12C cells = experiment: Cellular growth inhibition assay (CTG), HeLa KRas G12C cells; format: cell-based; details: Homo sapiens, CellTiter-Glo 2.0, day-5
Description: Cells were seeded in Poly-D-lysine-treated 384-well white plates, with 25 μL cell suspension at 250 cells/well for continuous treatments, and 1000 cells/well for washout treatments. Plates were spun at 300×g for 3 minutes, and cells were cultured at 37° C. with 5% CO2 in a humidified tissue culture incubator.
After 24 hours, the test compounds were diluted with cell culture medium in 96 deep well plates. DMSO was used as a negative control. A 25 μL aliquot of compound-containing medium was added in each well, at a final top concentration of 10 μM or 30 μM test compound, with 3-fold dilutions. For washout assays, after 4 hours, cell medium with compound was removed, and the cells were washed with 75p L fresh medium. Plates were then spun at 300×g for 3 minutes and replaced with 50 μL fresh medium in each well. Plates were then spun at 300×g for 3 minutes again and cultured at 37° C. with 5% CO2.
At day-0 and day-5 of compound treatments, cell viability was quantified with CellTiter-Glo 2.0 (Promega). After equilibrating cell plates at room temperature for 30 minutes, 25 μL CellTiter-Glo 2.0 reagent was dispensed into each well (on top of 50 μL of cell culture). Plates were mixed on a shaker for 2 minutes at 500 rpm, followed by a 10-minute incubation at room temperature. Luminescence readings were measured with an EnVision Plate Reader. Data was normalized to DMSO treated day-0 cell wells. A four-parameter non-linear regression curve fit was applied to dose-response data in Prism to determine the half maximal growth inhibitory concentration (GI50) of each compound.

T1 sequence (P15170 whole entry): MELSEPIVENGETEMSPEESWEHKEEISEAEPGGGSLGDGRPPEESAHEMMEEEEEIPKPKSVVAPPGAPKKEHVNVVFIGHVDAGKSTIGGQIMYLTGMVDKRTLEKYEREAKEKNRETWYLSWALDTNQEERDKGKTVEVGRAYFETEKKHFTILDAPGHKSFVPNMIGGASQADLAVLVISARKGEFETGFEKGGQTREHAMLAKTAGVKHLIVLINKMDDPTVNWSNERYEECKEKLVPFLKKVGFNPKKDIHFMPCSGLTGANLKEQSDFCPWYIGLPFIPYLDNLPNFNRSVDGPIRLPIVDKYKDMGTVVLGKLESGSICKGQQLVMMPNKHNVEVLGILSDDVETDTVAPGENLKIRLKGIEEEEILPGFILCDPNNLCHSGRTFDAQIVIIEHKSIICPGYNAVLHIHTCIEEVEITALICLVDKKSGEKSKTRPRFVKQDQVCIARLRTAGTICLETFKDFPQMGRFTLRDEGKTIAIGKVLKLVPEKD
T1 sequence (Q96SW2 whole entry): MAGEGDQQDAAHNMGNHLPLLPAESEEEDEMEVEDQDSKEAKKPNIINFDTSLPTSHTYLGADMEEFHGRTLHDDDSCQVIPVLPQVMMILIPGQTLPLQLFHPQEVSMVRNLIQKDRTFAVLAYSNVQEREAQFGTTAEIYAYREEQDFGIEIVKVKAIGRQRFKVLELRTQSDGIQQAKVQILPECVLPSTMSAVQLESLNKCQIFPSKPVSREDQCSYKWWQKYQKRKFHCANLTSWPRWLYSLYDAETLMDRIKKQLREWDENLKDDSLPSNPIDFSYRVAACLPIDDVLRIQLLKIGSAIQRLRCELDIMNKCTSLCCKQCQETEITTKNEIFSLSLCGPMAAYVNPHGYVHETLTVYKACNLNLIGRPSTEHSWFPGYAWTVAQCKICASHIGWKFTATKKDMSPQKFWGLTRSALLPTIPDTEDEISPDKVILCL
T1 sequence (Q16531 whole entry partner): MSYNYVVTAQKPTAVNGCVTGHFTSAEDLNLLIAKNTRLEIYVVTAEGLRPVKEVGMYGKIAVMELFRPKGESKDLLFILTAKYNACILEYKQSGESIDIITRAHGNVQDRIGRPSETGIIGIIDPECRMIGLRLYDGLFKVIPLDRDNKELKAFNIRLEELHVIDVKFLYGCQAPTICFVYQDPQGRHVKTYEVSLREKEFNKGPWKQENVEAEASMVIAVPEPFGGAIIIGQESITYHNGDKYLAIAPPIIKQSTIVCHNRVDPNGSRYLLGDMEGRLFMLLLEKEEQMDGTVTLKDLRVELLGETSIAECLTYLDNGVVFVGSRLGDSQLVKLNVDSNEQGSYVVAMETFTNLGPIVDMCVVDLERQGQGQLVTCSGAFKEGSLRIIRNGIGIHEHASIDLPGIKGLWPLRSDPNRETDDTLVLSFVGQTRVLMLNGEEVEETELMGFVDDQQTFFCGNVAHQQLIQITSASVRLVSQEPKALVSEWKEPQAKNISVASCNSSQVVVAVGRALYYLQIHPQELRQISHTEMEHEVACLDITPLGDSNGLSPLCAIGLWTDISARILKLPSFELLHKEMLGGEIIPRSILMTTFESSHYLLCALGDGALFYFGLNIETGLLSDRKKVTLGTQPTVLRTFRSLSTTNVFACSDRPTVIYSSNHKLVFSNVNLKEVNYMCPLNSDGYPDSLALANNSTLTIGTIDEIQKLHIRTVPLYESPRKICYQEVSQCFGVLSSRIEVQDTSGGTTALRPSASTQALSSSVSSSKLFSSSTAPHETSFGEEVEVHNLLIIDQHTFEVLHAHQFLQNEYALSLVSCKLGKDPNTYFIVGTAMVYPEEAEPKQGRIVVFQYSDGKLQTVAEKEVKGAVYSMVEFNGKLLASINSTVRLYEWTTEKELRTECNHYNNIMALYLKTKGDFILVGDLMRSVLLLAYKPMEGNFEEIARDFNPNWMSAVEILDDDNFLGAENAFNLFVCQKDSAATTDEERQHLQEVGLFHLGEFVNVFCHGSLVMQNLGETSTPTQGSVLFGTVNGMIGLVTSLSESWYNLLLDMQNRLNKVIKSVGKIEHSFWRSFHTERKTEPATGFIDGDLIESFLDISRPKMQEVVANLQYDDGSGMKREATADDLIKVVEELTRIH

SMILES | DC50 (GSPT1; Table 3) [nM] | GI50 (HeLa KRas G12C cells) [nM] | DC50 (GSPT1; Table 3A) [nM]
C=C(F)C(=O)N1CCN(c2nc(OC[C@H]3CCCN3CCOCCOCCOCCOCCOCCOCCOCCOCCOCCOCCCCCCCCc3cc(Cl)cc(NC(=O)NCc4ccc5c(c4)CN(C4CCC(=O)NC4=O)C5=O)c3)nc3c2CCN(c2cccc4cccc(Cl)c24)C3)C[C@H]1CC#N (some centres unmarked) [Compound I-39] | < 250 | < 1000 | 
C=CC(=O)N1CCN(c2nc(NCCCCCCCCc3cccc4c3CN(C3CCC(=O)NC3=O)C4=O)nc3c(F)c(-c4cc(O)cc5ccccc45)c(Cl)cc23)CC1 (centres unmarked) [Compound I-8, 3-(4-(8-((4-(4-acryloylpiperazin-1-yl)-6-chloro-8-fluoro-7-(3-hydroxynaphthalen-1-yl)quinazolin-2-yl)amino)octyl)-1-oxoisoindolin-2-yl)piperidine-2,6-dione] | > 10000 | > 10000 | 
C=CC(=O)N1CCN(c2nc(NCCOCCOCCOCCOCCOCCOCCc3cc(Cl)cc(NC(=O)NCc4ccc5c(c4)CN(C4CCC(=O)NC4=O)C5=O)c3)nc3c(F)c(-c4cc(O)cc5ccccc45)c(Cl)cc23)CC1 (centres unmarked) [Compound I-7, 1-[3-chloro-5-[2-[2-[2-[2-[2-[2-[2-[[6-chloro-8-fluoro-7-(3-hydroxy-1-naphthyl)-4-(4-prop-2-enoylpiperazin-1-yl)quinazolin-2-yl]amino]ethoxy]ethoxy]ethoxy]ethoxy]ethoxy]ethoxy]ethyl]phenyl]-3-[[2-(2,6-dioxo-3-piperidyl)-1-oxo-isoindolin-5-yl]methyl]urea] | 5000 to 10000 | > 10000 | 
C=C(F)C(=O)N1CCN(c2nc(OC[C@@H]3CCCN3CCCCCCCCc3cc(Cl)cc(NC(=O)NCc4ccc5c(c4)CN(C4CCC(=O)NC4=O)C5=O)c3)nc3c2CCN(c2cccc4cccc(Cl)c24)C3)C[C@@H]1CC#N (stereo partly drawn) [Compound I-1, 1-[3-chloro-5-[8-[(2S)-2-[[7-(8-chloro-1-naphthyl)-4-[(3S)-3-(cyanomethyl)-4-(2-fluoroprop-2-enoyl)piperazin-1-yl]-6,8-dihydro-5H-pyrido[3,4-d]pyrimidin-2-yl]oxymethyl]pyrrolidin-1-yl]octyl]phenyl]-3-[[2-(2,6-dioxo-3-piperidyl)-1-oxo-isoindolin-5-yl]methyl]urea] | 250 to 5000 | 1000 to 3000 | 
C=C(F)C(=O)N1CCN(c2nc(OC[C@@H]3CCCN3CCOCCOCCOCCOCCOCCOCCOCCOCCOCCOCCOCCOCCCCCCCCc3cc(Cl)cc(NC(=O)NCc4ccc5c(c4)CN(C4CCC(=O)NC4=O)C5=O)c3)nc3c2CCN(c2cccc4cccc(Cl)c24)C3)C[C@@H]1CC#N (some centres unmarked) [Compound I-46] | < 250 | < 1000 | 
C=C(F)C(=O)N1CCN(c2nc(OC[C@@H]3CCCN3CCOCCOCCOCCOCCOCCOCCOCCOCCOCCOCCOCCOCCOc3cc(Cl)cc(NC(=O)NCc4ccc5c(c4)CN(C4CCC(=O)NC4=O)C5=O)c3)nc3c2CCN(c2cccc4cccc(Cl)c24)C3)C[C@@H]1CC#N (some centres unmarked) [Compound I-42] | > 10000 | > 10000 | 
C=C(F)C(=O)N1CCN(c2nc(OC[C@@H]3CCCN3CCOCCOCCOCCOCCOCCOCCCCCCCCc3cc(Cl)cc(NC(=O)NCc4ccc5c(c4)CN(C4CCC(=O)NC4=O)C5=O)c3)nc3c2CCN(c2cccc4cccc(Cl)c24)C3)C[C@@H]1CC#N (some centres unmarked) [Compound I-41] | < 250 | < 1000 | 
C=CC(=O)N1CCN(c2nc(NCCCCCCCCc3cc(Cl)cc(NC(=O)NCc4ccc5c(c4)CN(C4CCC(=O)NC4=O)C5=O)c3)nc3c(F)c(-c4cc(O)cc5ccccc45)c(Cl)cc23)CC1 (centres unmarked) [Compound I-5, 1-[3-chloro-5-[8-[[6-chloro-8-fluoro-7-(3-hydroxy-1-naphthyl)-4-(4-prop-2-enoylpiperazin-1-yl)quinazolin-2-yl]amino]octyl]phenyl]-3-[[2-(2,6-dioxo-3-piperidyl)-1-oxo-isoindolin-5-yl]methyl]urea] | < 250 | > 10000 | 
C=C(F)C(=O)N1CCN(c2nc(OC[C@@H]3CCCN3CCOCCOCCOCCOCCOCCOCCOCCOCCc3cc(Cl)cc(NC(=O)NCc4ccc5c(c4)CN(C4CCC(=O)NC4=O)C5=O)c3)nc3c2CCN(c2cccc4cccc(Cl)c24)C3)C[C@@H]1CC#N (stereo partly drawn) [Compound I-11, 1-[3-chloro-5-[2-[2-[2-[2-[2-[2-[2-[2-[2-[(2S)-2-[[7-(8-chloro-1-naphthyl)-4-[(3S)-3-(cyanomethyl)-4-(2-fluoroprop-2-enoyl)piperazin-1-yl]-6,8-dihydro-5H-pyrido[3,4-d]pyrimidin-2-yl]oxymethyl]pyrrolidin-1-yl]ethoxy]ethoxy]ethoxy]ethoxy]ethoxy]ethoxy]ethoxy]ethoxy]ethyl]phenyl]-3-[[2-(2,6-dioxo-3-piperidyl)-1-oxo-isoindolin-5-yl]methyl]urea] | > 10000 | > 10000 | 
C=C(F)C(=O)N1CCN(c2nc(OC[C@@H]3CCCN3CCOCCOCCOCCOCCCCCCCCc3cc(Cl)cc(NC(=O)NCc4ccc5c(c4)CN(C4CCC(=O)NC4=O)C5=O)c3)nc3c2CCN(c2cccc4cccc(Cl)c24)C3)C[C@@H]1CC#N (some centres unmarked) [Compound I-40] | < 250 | < 1000 | 
C=CC(=O)N1CCN(c2nc(NCCCCCCCCNc3cccc4c3CN(C3CCC(=O)NC3=O)C4=O)nc3c(F)c(-c4cc(O)cc5ccccc45)c(Cl)cc23)CC1 (centres unmarked) [Compound I-6, 3-(4-((8-((4-(4-acryloylpiperazin-1-yl)-6-chloro-8-fluoro-7-(3-hydroxynaphthalen-1-yl)quinazolin-2-yl)amino)octyl)-amino)-1-oxoisoindolin-2-yl)piperidine-2,6-dione] | > 10000 | > 10000 | 
C=C(F)C(=O)N1CCN(c2nc(OC[C@@H]3CCCN3CCOCCOCCOCCOCCCCCCCCCCCCCCc3cc(Cl)cc(NC(=O)NCc4ccc5c(c4)CN(C4CCC(=O)NC4=O)C5=O)c3)nc3c2CCN(c2cccc4cccc(Cl)c24)C3)C[C@@H]1CC#N (some centres unmarked) [Compound I-49] | 250 to 5000 | > 10000 | 
C=CC(=O)N1CCN(c2nc(NCCOCCOCCOCCOCCOCCOCCOCCOCCOCCOCCOc3cc(Cl)cc(NC(=O)NCc4ccc5c(c4)CN(C4CCC(=O)NC4=O)C5=O)c3)nc3c(F)c(-c4cc(O)cc5ccccc45)c(Cl)cc23)CC1 (centres unmarked) [Compound I-14, 1-[3-chloro-5-[2-[2-[2-[2-[2-[2-[2-[2-[2-[2-[2-[[6-chloro-8-fluoro-7-(3-hydroxy-1-naphthyl)-4-(4-prop-2-enoylpiperazin-1-yl)quinazolin-2-yl]amino]ethoxy]ethoxy]ethoxy]ethoxy]ethoxy]ethoxy]ethoxy]ethoxy]ethoxy]ethoxy]ethoxy]phenyl]-3-[[2-(2,6-dioxo-3-piperidyl)-1-oxo-isoindolin-5-yl]methyl]urea] | > 10000 | > 10000 | 

Next, values leading:

DC50 (GSPT1; Table 3) [nM] | GI50 (HeLa KRas G12C cells) [nM] | DC50 (GSPT1; Table 3A) [nM] | SMILES
< 250 | < 1000 |  | C=C(F)C(=O)N1CCN(c2nc(OC[C@@H]3CCCN3CCOCCOCCOCCOCCOCCOCCOCCOCCOCCOCCOCCOCCCCCCCCCCCCCCc3cc(Cl)cc(NC(=O)NCc4ccc5c(c4)CN(C4CCC(=O)NC4=O)C5=O)c3)nc3c2CCN(c2cccc4cccc(Cl)c24)C3)C[C@@H]1CC#N (some centres unmarked) [Compound I-53]
250 to 5000 | 1000 to 3000 |  | C=C(F)C(=O)N1CCN(c2nc(OC[C@@H]3CCCN3CCOCCOCCOCCOCCOCCOCCOCCOCCOCCCCCc3cc(Cl)cc(NC(=O)NCc4ccc5c(c4)CN(C4CCC(=O)NC4=O)C5=O)c3)nc3c2CCN(c2cccc4cccc(Cl)c24)C3)C[C@@H]1CC#N (some centres unmarked) [Compound I-44]
250 to 5000 | 1000 to 3000 |  | C=C(F)C(=O)N1CCN(c2nc(OC[C@@H]3CCCN3CCOCCOCCOCCOCCOCCOCCOCCCCCc3cc(Cl)cc(NC(=O)NCc4ccc5c(c4)CN(C4CCC(=O)NC4=O)C5=O)c3)nc3c2CCN(c2cccc4cccc(Cl)c24)C3)C[C@@H]1CC#N (some centres unmarked) [Compound I-43]
250 to 5000 | 3000 to 10000 |  | C=C(F)C(=O)N1CCN(c2nc(OC[C@@H]3CCCN3CCOCCOCCCCCCCCCCCCCCc3cc(Cl)cc(NC(=O)NCc4ccc5c(c4)CN(C4CCC(=O)NC4=O)C5=O)c3)nc3c2CCN(c2cccc4cccc(Cl)c24)C3)C[C@@H]1CC#N (some centres unmarked) [Compound I-48]
 | 1000 to 3000 | 250 to 5000 | C=C(F)C(=O)N1CCN(c2nc(OC[C@@H]3CCCN3CCCOCCOCCOCCOCCOCCOCCOCCCCCc3cc(Cl)cc(NC(=O)NCc4ccc5c(c4)CN(C4CCC(=O)NC4=O)C5=O)c3)nc3c2CCN(c2cccc4cccc(Cl)c24)C3)C[C@@H]1CC#N (some centres unmarked) [Compound I-118]
> 10000 | > 10000 |  | C=CC(=O)N1CCN(c2nc(NCCOCCOCCOCCOCCOCCOCCOCCOCCOCCOCCc3cc(Cl)cc(NC(=O)NCc4ccc5c(c4)CN(C4CCC(=O)NC4=O)C5=O)c3)nc3c(F)c(-c4cc(O)cc5ccccc45)c(Cl)cc23)CC1 (centres unmarked) [Compound I-16, 1-[3-chloro-5-[2-[2-[2-[2-[2-[2-[2-[2-[2-[2-[2-[[6-chloro-8-fluoro-7-(3-hydroxy-1-naphthyl)-4-(4-prop-2-enoylpiperazin-1-yl)quinazolin-2-yl]amino]ethoxy]ethoxy]ethoxy]ethoxy]ethoxy]ethoxy]ethoxy]ethoxy]ethoxy]ethoxy]ethyl]phenyl]-3-[[2-(2,6-dioxo-3-piperidyl)-1-oxo-isoindolin-5-yl]methyl]urea]
